Source: publication PMC11440508, “Dually Labeled Neurotensin NTS1R Ligands for Probing Radiochemical and Fluorescence-Based Binding Assays” (Journal of Medicinal Chemistry, 2024)

How the values were obtained:
NTS1R [1] = biological target: T1, NTS1R (Homo sapiens, UniProt P30989); assay: High-content imaging (HCI) saturation binding, adherent CHO-hNTS1R cells; settings: 23 °C
Description: CHO-hNTS1R or HT-29 cells were seeded one day prior to the experiment into the inner 60 wells of a black clear-bottom 96-well plate (Greiner 655090, Greiner Bio-One) at a concentration of 25,000 cells/well and 35,000 cells/well, respectively. On the day of the assay, the medium was removed by suction and the cells were washed with DPBS1 (50 μL). After this step, DPBS1 (180 or 200 μL) containing the nuclear dye Hoechst H33342 (2 μg/mL) was added. This solution also contained the fluorescent ligand (kinetic studies, competition binding experiments), or the fluorescent ligand was added separately (saturation binding experiments). […] Shortly before subjecting the plate to the plate reader for image acquisition, the liquid was removed by suction and DPBS1 (100 μL) was added. Images were acquired using an IX Micro plate reader (Molecular Devices, Sunnyvale, CA) using a 20× Plan Fluor ELWD objective, a xenon lamp light source and DAPI and TRITC excitation/emission filter cubes for imaging nuclear and fluorescent ligand staining, respectively. […] Two sites/well were measured throughout. Images were analyzed by granularity analysis (2–3 μm diameter granules; MetaXpress 5.3, Molecular Devices, San Diego, CA) and the integrated intensity (pixel intensity × granule area) per cell was used as the raw measurement of fluorescent ligand binding. […]

NTS1R [2] = biological target: T1, NTS1R; assay: Flow cytometric (FC) association and dissociation kinetics, suspended CHO-hNTS1R cells; type: binding; settings: FC (suspension); for koff: 23 °C, read-out: koff [min^–1] (converted); for kon: calculated from kobs, koff and ligand concentration, read-out: kon [min^–1 nM^–1] (converted)
Description: Flow cytometry-based NTS1R binding studies were performed with intact CHO-hNTS1R (all kind of experiments) and HT-29 cells (only saturation binding) using a BD FACSCanto II (Becton Dickinson, Heidelberg, Germany), equipped with an argon laser (488 nm) and a red diode laser (640 nm), and a BD High Throughput Sampler (HTS unit) for microtiter plates. Saturation and competition binding experiments were performed in triplicate in 96-well polypropylene plates (Brand 701330, Wertheim, Germany) using the HTS unit for sample injection. Association and dissociation experiments were performed in duplicate in 5 mL polypropylene tubes (VWR, Radnor) using the standard injection port of the flow cytometer. The following gain settings for forward and sideward scatter were applied: FSC, 0 V; SSC, 252 V. Fluorescence was recorded using the PE-channel (excitation: 488 nm, emission: 585 ± 21) nm with a PMT gain of 330–400 V. For measurements using the HTS unit, 45 μL of the sample were injected with a speed of 1.5 μL/s. For measurements, requiring the use of the standard injection port, the medium flow rate ([…]) was used. Measurements were stopped after 30 s (HTS unit) or after counting of 500–3000 gated events (standard injection port).
Cells were seeded in T75 culture flasks 3–4 days (CHO-hNTS1R cells) or 5–6 days (HT-29 cells) prior to the experiment. On the day of the experiment, cells were detached by trypsinization, suspended in DPBS1 and centrifuged at 200g at rt for 5 min. […]
5 mL polypropylene tubes were prefilled with 2000 μL of cell suspension and DMSO/H2O 2:8 v/v (20 μL) were added (determination of total binding). […] Specific binding data, obtained by subtracting triplicate mean values of unspecific binding from triplicate mean values of total binding, were plotted against the time and analyzed by a three-parameter equation describing an exponential rise to a maximum (one-phase association, Y0 constrained to zero, GraphPad Prism 5) to yield the observed association rate constant kobs. […]
5 mL polypropylene tubes were prefilled with 2000 μL of cell suspension. […] After different periods of time (1–240 min), sample aliquots were measured by placing the tube in the injection port of the flow cytometer. Specific binding data, obtained by subtracting triplicate mean values of unspecific binding from triplicate mean values of total binding, were plotted against the time and analyzed by a three-parameter equation describing an incomplete monophasic exponential decline (one phase decay, GraphPad Prism 5) to obtain koff values. […]
The kon and Kd(kin) values were calculated as described for high-content imaging binding experiments.

T1 sequence (P30989 whole entry): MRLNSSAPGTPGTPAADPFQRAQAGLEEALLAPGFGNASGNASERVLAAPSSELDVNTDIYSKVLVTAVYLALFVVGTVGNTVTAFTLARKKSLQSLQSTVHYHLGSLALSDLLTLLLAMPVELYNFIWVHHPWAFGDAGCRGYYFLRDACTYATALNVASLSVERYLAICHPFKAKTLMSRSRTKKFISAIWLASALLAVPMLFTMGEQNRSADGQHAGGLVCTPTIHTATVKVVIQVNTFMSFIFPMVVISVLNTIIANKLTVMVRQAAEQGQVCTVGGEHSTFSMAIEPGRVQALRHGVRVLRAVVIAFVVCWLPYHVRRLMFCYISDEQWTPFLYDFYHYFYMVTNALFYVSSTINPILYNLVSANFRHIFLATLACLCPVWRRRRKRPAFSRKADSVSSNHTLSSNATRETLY

| SMILES | Kd (NTS1R [1]) [nM] | koff (NTS1R [2]) [s⁻¹] | kon (NTS1R [2]) [M⁻¹ s⁻¹] |
| --- | --- | --- | --- |
| CCC(=O)NCCCCNC(=O)N=C(N)NCCC[C@H](NC(=O)[C@@H]1CCCN1C(=O)[C@@H](NC(=O)CCc1cn(CCCNC(=O)c2ccc(-c3c4ccc(=[N+](C)C)cc-4oc4cc(N(C)C)ccc34)c(C(=O)[O-])c2)nn1)C1CCNCC1)C(=O)N[C@@H](CCCNC(=N)N)C(=O)N1CCC[C@H]1C(=O)N[C@@H](Cc1ccc(O)cc1)C(=O)N[C@H](C(=O)N[C@@H](CC(C)C)C(=O)O)[C@@H](C)CC [Compound 13, N^α-(3-(1-N-((1-Carboxylato-2-(6-(dimethylamino)-3-(dimethyliminio)-3H-xanthen-9-yl)phen-5-yl)1-oxomethyl)aminoprop-3-yl-1H-1,2,3-triazol-4-yl)propanoyl)-2-(piperidin-4-yl)-Gly-Pro-N^ω-[(4-(N-propanoyl)aminobutyl)aminocarbonyl]Arg-Arg-Pro-Tyr-Ile-Leu Tris(hydrotrifluoroacetate)] | 1.1 ± 0.2 | 0.000333 | 8e+06 |
| CCC(=O)NCCCCNC(=O)NC(=N)NCCC[C@H](NC(=O)[C@@H]1CCCN1C(=O)[C@@H](NC(=O)CCc1cn(CCCNC(=O)CCC#Cc2ccc3c(c2)C(C)(C)C2=C4C=C5C6=[N+](CCC5OC4CCN23)c2ccc(S(=O)(=O)[O-])cc2C6(C)C)nn1)C1CCNCC1)C(=O)N[C@@H](CCCNC(=N)N)C(=O)N1CCC[C@H]1C(=O)N[C@H](C(=O)N[C@H](C(=O)N[C@@H](CC(C)C)C(=O)O)[C@@H](C)CC)C(C)(C)c1ccc(O)cc1 (stereo partly drawn) [Compound 18, N^α-(3-(N-(1-(8-Sulfonato-5,5,27,27-tetramethyl-16-oxa-20-aza-12-azoniaheptacyclo[15.11.0.03,15.04,12.06,11.020,28.021,26]octacosa-1(28),2,4(12),6(11),7,9,21(26),22,24-nonaen-24-yl)-5-oxopentyn-5-yl)-1-aminoprop-3-yl-1H-1,2,3-triazol-4-yl)propanoyl)-2-(piperidin-4-yl)-Gly-Pro-N^ω-[(4-(N-propanoyl)aminobutyl)aminocarbonyl]Arg-Arg-Pro-β,β-dimethyl-L-Tyr-Ile-Leu Tris(hydrotrifluoroacetate)] | 1.3 ± 0.3 | 0.0004 | 2.67e+06 |
